Laboratory results: BindingDB's records for doi:10.1021/jm00157a006 (1987)
Non-standard residues stand in square brackets, D forms with d. Residues, ends and D or L forms follow the SMILES beside them. *: point of attachment. Ala(1-Adamantyl) = N[C@@H](CC12CC3CC(CC(C3)C1)C2)C(=O)O; Sta = CC(C)C[C@H](N)[C@@H](O)CC(=O)O; Cbz = O=C(OCc1ccccc1)*; Boc = CC(C)(C)OC(=O)*

Legend:
Renin (Sus scrofa) [1] = assay: In vitro inhibitory activity against hog plasma renin
Renin (Sus scrofa) [2] = assay: Inhibition of hog […] plasma renin activity

Row | IC50 (Renin (Sus scrofa) [2]) | SMILES | IC50 (Renin (Sus scrofa) [1])
1 |  | COC(=O)C[C@H](O)[C@H](CC(C)C)NC(=O)[C@H](C)NC(=O)C[C@H](O)[C@H](CC(C)C)NC(=O)[C@H](Cc1ccccc1)NC(=O)[C@H](Cc1ccccc1)NC(=O)OC(C)(C)C [4-(2-{4-[2-(2-tert-Butoxycarbonylamino-3-phenyl-propionylamino)-3-phenyl-propionylamino]-3-hydroxy-6-methyl-heptanoylamino}-propionylamino)-3-hydroxy-6-methyl-heptanoic acid methyl ester] | 52 nM
2 |  | COC(=O)C[C@H](O)[C@H](CC(C)C)NC(=O)[C@H](C)NC(=O)C[C@H](O)[C@H](CC(C)C)NC(=O)[C@H](Cc1c[nH]cn1)NC(=O)[C@H](CC12CC3CC(CC(C3)C1)C2)NC(=O)OC(C)(C)C [4-(2-{4-[2-(3-Adamantan-1-yl-2-tert-butoxycarbonylamino-propionylamino)-3-(1H-imidazol-4-yl)-propionylamino]-3-hydroxy-6-methyl-heptanoylamino}-propionylamino)-3-hydroxy-6-methyl-heptanoic acid methyl ester] (Boc-[Ala(1-Adamantyl)]H[Sta]A[Sta]-OMe) | 600 nM
3 | 15 nM | COC(=O)C[C@H](O)[C@H](CC(C)C)NC(=O)[C@H](C)NC(=O)C[C@H](O)[C@H](CC(C)C)NC(=O)[C@@H](NC(=O)[C@H](Cc1c[nH]c2ccccc12)NC(=O)OCc1ccccc1)C(C)C [4-[2-(4-{2-[2-Benzyloxycarbonylamino-3-(1H-indol-3-yl)-propionylamino]-3-methyl-butyrylamino}-3-hydroxy-6-methyl-heptanoylamino)-propionylamino]-3-hydroxy-6-methyl-heptanoic acid methyl ester] (Cbz-WV[Sta]A[Sta]-OMe) | 
